Results from ChEMBL document CHEMBL4725246, “Design, synthesis, and evaluation of a novel macrocyclic anti-EV71 agent” (Bioorg Med Chem, 2020).

How the values were obtained:
Enterovirus A71 [1] = experiment: Antiviral activity against Enterovirus A71 SK-EV006 measured after 3 to 4 days by cell based assay; type: functional, organism-based; conditions: Enterovirus A
[2] = Stability in CD-1 mouse plasma assessed as parent compound remaining upto 120 mins by LC-MS analysis; type: ADME, cell-free; conditions: read-out: Stabilty
Enterovirus A71 [3] = experiment: Antiviral activity against Enterovirus A71 Shenzhen/120F1/09 infected in human RD cells assessed as […] measured after 72 hrs post-infection by CCK-8 assay; type: functional, organism-based; conditions: Enterovirus A, Shenzhen/120F1/09, RD

EC50 (Enterovirus A71 [1]) [µM]	remaining at 2 h [2] [%]	Compound	EC50 (Enterovirus A71 [3]) [µM]
0.108		Cc1cc(C(=O)N[C@@H](Cc2ccc(F)cc2)C(=O)N[C@H](C=O)C[C@@H]2CCCNC2=O)no1	
	5.6	Cc1cc(C(=O)N[C@H](C(=O)NC2C(=O)N[C@@H](CC3CCNC3=O)/C=C/C(=O)OC/C=C/CCOC2c2ccccc2)C(C)C)no1 (stereo partly drawn)	4.5
